From patent publication US20150182487A1, “COMPOSITION FOR PREVENTING AND TREATING INFLAMMATORY DISEASES AND IMMUNE DISEASES, CONTAINING APO-9`-FUCOXANTHINONE AS ACTIVE INGREDIENT” (JEJU NATIONAL UNIVERSITY INDUSTRY ACADEMIC COOPERATION …, priority 2012, published 2015)

Key:
[1] = test system: IL-12 p40, IL-6, and TNF-α; assay: ELISA of pro-inflammatory cytokine production in CpG-ODN-stimulated bone marrow-derived macrophage; type: cell-based, mouse; settings: compound 5, 10, 20, 50 μM for 1 hour before CpG-ODN (1 μM), FIG. 4
Method: (§1) Bone marrow-derived dendritic cells (BMDC) and macrophage (BMDM) were obtained from a wild-type C57BL/6 mouse. To be brief, bone marrow cells were obtained by flushing a tibia and femur of the mouse with DMEM (Dulbecco's modified Eagles medium). The cells were cultured in a medium RPMI 1640 including 10% heat-inactivated FBS (Gibco, NY, U.S.A.), 50 μM of β-mercapto ethanol, and 2 mM glutamine and supplemented with 3% hybridoma cell culture supernatant J558L containing granulocyte-macrophage colony-stimulating factor (GM-CSF) for BMDCs.
Further, the obtained bone marrow cells were cultured in a DMEM including 20% heat-inactivated FBS, a 30% L929 cell culture supernatant containing a macrophage colony-stimulating factor, and 1% penicillin-streptomycin for BMDMs.
(§2) In order to check whether the Sargassum muticum extracts obtained in the present invention has an anti-inflammatory and an immunomodulatory activity, the following experiments were conducted with the Sargassum muticum extracts obtained in Example <1-1>. That is, bone marrow-derived macrophage and dendritic cells cultured as described above were seeded at 1×10^5 cells/0.5 ml in a 48-well plate. […] Supernatants were harvested 18 hour after stimulation. Amounts of IL-12 p40, IL-6, and TNF-α were measured using ELISA (BD PharMingen, CA, USA and R&D system, MN, USA). […]

[2] = test system: bone marrow-derived macrophages; assay: MTT assay of pyroptotic cell death of bone marrow-derived macrophages treated with LPS and ATP; type: cell-based, mouse; settings: bone marrow-derived macrophages treated with both LPS and ATP; compound 6.25-50 μM; FIG. 9 lower graph
Method: When LPS primed bone marrow-derived macrophages are treated with ATP, NLPR3 inflammasome is activated, and, thus, IL-1β is secreted. Therefore, in order to check whether the apo-9′-fucoxanthinone compound has an effect of inhibiting the NLRP3 inflammasome, the inventors of the present invention checked a degree of IL-1β production induced by ATP in LPS primed BMDMs using ELISA To do so, the bone marrow-derived macrophages cultured in the same manner as Example 2 were dispensed at 1×10^5 cells/0.5 ml in a 48-well plate, and these cells were treated with LPS at a concentration of 10 ng/ml for 18 hours. Then, the cells were treated with the apo-9′-fucoxanthinone compound at each concentration (0, 6.25, 12.5, 25, and 50 μM) for 1 hour. At 2 hours after treatment with ATP at a concentration of 5 mM, a cell culture medium was obtained and an expression amount of IL-1β was measured using ELISA (R&D system, MN, USA). […]
That is, the cells treated as described above were treated with 0.2 mg of an MTT reagent and cultured at a temperature of 37° C. for 4 hours. After culture, the cells were collected and formazan crystals in each well were dissolved in 250 μl of DMSO, and then, an absorbance at 540 nm was measured to measure cell viability.

[3] = test system: ERK1/2 (ERK p44/p42); assay: Western blot of MAPK phosphorylation in CpG-ODN-stimulated macrophages; type: cell-based, mouse; settings: macrophages pre-treated at 20 μM for 1 hour before CpG-ODN; FIG. 6A
Method: (§3) In order to check whether the apo-9′-fucoxanthinone compound has an effect on activities of MAPK and NF-κB that are upstream signal transduction pathways for pro-inflammatory cytokine production, a Western blot analysis was conducted as follows. That is, the macrophages were dispensed to 60-mm culture dishes at 4×10^6 cells per dish, and then cultured for 24 hours at 37° C. The cells were pre-treated with the apo-9′-fucoxanthinone compound at a concentration of 20 μM for 1 hour before treatment with CpG-ODN. The cells were collected and dissolved using a lysis buffer (PRO-PREP Lysis buffer, iNtRON Biotechnology). Protein samples were electrophoresed in 10%-SDS PAGE, and then electrophoresed in a polyvinylidene fluoride membrane, and then treated and reacted with phospho-p44/42 (P-ERK p44/p42), phospho-p38 (P-p38), p38 MAPK, phospho-SAPK/JNK (P-JNK), phospho-IκBα, and IκBα (Cell Signaling Technology, MA, USA) as 1/1000 diluted primary antibodies. Thereafter, the membrane was washed and treated and reacted with horseradish peroxidase-linked anti-rabbit IgG (Cell Signaling Technology). Then, a signal was checked using a WEST-ZOL plus western blot detection system (iNtRON Biotechnology).

[4] = test system: IκBα; assay: Western blot of degradation and phosphorylation of IκBα in CpG-ODN-stimulated macrophages; type: cell-based, mouse; settings: macrophages pre-treated at 20 μM for 1 hour before CpG-ODN; FIG. 6B
Method: as §3

[5] = test system: IL-12 p40, IL-6, and TNF-α; assay: ELISA of pro-inflammatory cytokine production in CpG-ODN-stimulated bone marrow-derived dendritic cells; type: cell-based, mouse; settings: compound 5, 10, 20, 50 μM for 1 hour before CpG-ODN (1 μM), FIG. 5
Method: as §1
as §2, with “USA). At this time, a non-treated group, a group treated with the extracts only, and a group treated with CpG-ODN only without treatment with the extracts were used as a control group.” for “USA).”

[6] = target: T1, NLRP3 inflammasome (Mus musculus, UniProt Q8R4B8); assay: ELISA of IL-1β production induced by ATP in LPS primed BMDMs; type: cell-based; settings: BMDMs primed with LPS 10 ng/ml 18 hours; compound 6.25, 12.5, 25, 50 μM 1 hour; ATP 5 mM 2 hours; FIG. 9 upper graph
T1 construct: checked a degree of IL-1β production induced by ATP in LPS primed BMDMs using ELISA; endogenous in cells; host or cells: bone marrow-derived macrophages (BMDM) from wild-type C57BL/6 mouse, LPS-primed and ATP-stimulated
T1 sequence (Q8R4B8 whole entry): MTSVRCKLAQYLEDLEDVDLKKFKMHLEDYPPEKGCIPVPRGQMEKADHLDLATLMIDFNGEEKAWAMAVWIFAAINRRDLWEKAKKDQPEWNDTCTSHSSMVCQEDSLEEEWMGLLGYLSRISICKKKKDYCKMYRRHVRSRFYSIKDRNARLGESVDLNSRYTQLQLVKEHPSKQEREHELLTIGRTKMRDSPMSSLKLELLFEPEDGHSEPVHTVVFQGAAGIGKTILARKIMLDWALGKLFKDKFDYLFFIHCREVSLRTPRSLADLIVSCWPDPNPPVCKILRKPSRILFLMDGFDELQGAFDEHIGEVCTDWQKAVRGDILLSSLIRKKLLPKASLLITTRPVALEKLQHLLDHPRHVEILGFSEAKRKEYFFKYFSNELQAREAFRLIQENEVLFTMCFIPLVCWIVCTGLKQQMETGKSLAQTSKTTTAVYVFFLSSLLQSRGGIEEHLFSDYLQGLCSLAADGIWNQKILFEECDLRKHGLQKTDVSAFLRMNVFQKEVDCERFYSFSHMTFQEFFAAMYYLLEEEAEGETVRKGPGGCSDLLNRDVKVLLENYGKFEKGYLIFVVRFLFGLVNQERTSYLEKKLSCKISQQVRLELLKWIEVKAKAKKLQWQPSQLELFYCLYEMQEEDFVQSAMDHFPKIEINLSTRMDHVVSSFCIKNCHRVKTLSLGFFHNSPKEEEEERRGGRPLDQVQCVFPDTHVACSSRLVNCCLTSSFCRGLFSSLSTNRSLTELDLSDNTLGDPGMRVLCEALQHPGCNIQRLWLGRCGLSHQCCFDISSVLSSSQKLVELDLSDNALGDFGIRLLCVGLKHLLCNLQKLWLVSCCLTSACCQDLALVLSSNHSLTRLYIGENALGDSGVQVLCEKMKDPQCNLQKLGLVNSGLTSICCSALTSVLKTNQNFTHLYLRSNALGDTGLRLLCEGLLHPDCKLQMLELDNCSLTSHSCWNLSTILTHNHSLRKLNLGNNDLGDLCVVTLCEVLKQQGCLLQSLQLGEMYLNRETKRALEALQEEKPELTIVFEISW
Method: When LPS primed bone marrow-derived macrophages are treated with ATP, NLPR3 inflammasome is activated, and, thus, IL-1β is secreted. Therefore, in order to check whether the apo-9′-fucoxanthinone compound has an effect of inhibiting the NLRP3 inflammasome, the inventors of the present invention checked a degree of IL-1β production induced by ATP in LPS primed BMDMs using ELISA To do so, the bone marrow-derived macrophages cultured in the same manner as Example 2 were dispensed at 1×10^5 cells/0.5 ml in a 48-well plate, and these cells were treated with LPS at a concentration of 10 ng/ml for 18 hours. Then, the cells were treated with the apo-9′-fucoxanthinone compound at each concentration (0, 6.25, 12.5, 25, and 50 μM) for 1 hour. At 2 hours after treatment with ATP at a concentration of 5 mM, a cell culture medium was obtained and an expression amount of IL-1β was measured using ELISA (R&D system, MN, USA). Further, as a positive control group, a group treated with 10 μM parthenolide (described as “part” in the drawings) known as an NLRP3 inflammasome inhibitor was used.

[7] = test system: AP-1; assay: AP-1 reporter luciferase assay in TLR9-transfected HEK293T cells stimulated with CpG-ODN; type: cell-based; settings: HEK293T cells transfected with murine TLR9-expressing plasmid; pre-treated 1 hour before CpG DNA (1 μM), 18 hour; FIG. 7
Method: It is known that activation of an MAPK signaling pathway activates a transcriptional factor AP-1, thereby increasing a DNA binding activity of AP-1 and expression of an AP-1-dependent gene. […] Firstly, HEK239T cells were plated in a 24-well plate and cultured overnight. Then, HEK293T cells were transfected with pcDNA3 (empty vector) or pcDNA3-mTLR9 that expresses murine TLR9, with an AP-1 reporter gene and pRLnull (Promega, WI, USA) using a Fugene 6 (Roche, UN, USA). Cells were then further incubated for 24 hour, and then pre-treated with the apo-9′-fucoxanthinone compound at each concentration as described in the above Examples for 1 hour before stimulation with CpG DNA (1 μM). After further incubation for 18 hour, the cells were lysed with a passive lysis buffer (Promega), and then analyzed using a dual luciferase reporter assay system (Promega). All of the experiments were repeated three times, and the results thereof were expressed in the fold increase.

With `CC(=O)C=C=C1C(C)(C)C[C@H](OC(C)=O)C[C@@]1(C)O` [apo-9′-fucoxanthinone] the “pro-inflammatory cytokine production (IL-12 p40, IL-6, TNF-α)” value [1] was “effectively inhibiting”, the “pyroptotic cell death (cell viability, MTT)” value [2] was “inhibiting pyroptotic cell death” and the “phosphorylation of ERK1/2 (ERK p44/p42)” value [3] was “strongly inhibited”. For the same molecule, the “degradation and phosphorylation of IκBα” value [4] was “did not greatly affect”, the “pro-inflammatory cytokine production (IL-12 p40, IL-6, TNF-α)” value [5] was “effectively inhibiting” and the “production of IL-1β” value [6] was “effectively inhibited in a dose-dependent manner”. For the same molecule, the AP-1-dependent luciferase activity [7] was “decreased in a dose-dependent manner”.
